# From patent US6830765B2, “Green tea extract for treating obesity” (priority 1999, dated 2004)
# What was measured:
# rat brown adipose tissue = assay: Ex vivo model of thermogenesis: oxygen consumption of a sample of rat brown adipose tissue; format: cell-based
# Procedure: These studies were carried out on an ex vivo pharmacological model of thermogenesis. The principle is to measure the oxygen consumption of a sample of rat brown adipose tissue; the oxygen consumption is proportional to the thermogenesis induced in the adipose tissue by the various test substances.
# thermogenesis = assay: Increase in thermogenesis in man (total expenditure of energy over 24 h, 10 volunteers); format: in vivo
# Procedure: The increase in thermogenesis in man by an extract of green tea according to the invention was also determined. A similar study was carried out on 10 volunteers receiving at each meal either 500 mg of an extract of green tea (corresponding to 125 mg of catechols and 50 mg of caffeine), or 50 mg of caffeine, or a placebo.
SMILES,"Increase in oxygen consumption (rat brown adipose tissue; Caffeine 0, EGCG 100 μM)","Increase in oxygen consumption (rat brown adipose tissue; Caffeine 0, EGCG 200 μM)","total expenditure of energy over 24 h (thermogenesis; 50 mg of caffeine at each meal, placebo 9538 kJ) [kJ]","effect on thermogenesis, result in words (thermogenesis; caffeine alone at the same dose as provided by the extract)","Increase in oxygen consumption (rat brown adipose tissue; Caffeine 100 μM, EGCG 0)"
"O=C(O[C@@H]1Cc2c(O)cc(O)cc2O[C@@H]1c1cc(O)c(O)c(O)c1)c1cc(O)c(O)c(O)c1 [EGCG, epigallocatechol gallate]",no,+40%,–,–,–
Cn1c(=O)c2c(ncn2C)n(C)c1=O [caffeine],–,–,9599,does not increase thermogenesis,no
